Reference: ChEMBL document CHEMBL4765237, “Structural optimization and structure-activity relationship studies of N-phenyl-7,8-dihydro-6H-pyrimido[5,4-b][1,4]oxazin-4-amine derivatives as a new class of inhibitors of RET and its drug resistance mutants” (Eur J Med Chem, 2018)
Active and inactive are the calls of the source. No cut-off for these calls is given here.

Tests used:
MGC-803 = experiment: Growth inhibition of human MGC-803 cells incubated for 3 days by MTT assay; format: functional; conditions: MGC-803, 72 h, time 3 day
[1] = target: Vascular endothelial growth factor receptor 2 (Homo sapiens, UniProt P35968); experiment: Inhibition of human KDR (790 to end residues) using myelin basic protein as substrate after 40 mins by [gamma-33ATP] radiometric assay
[2] = target: Tyrosine-protein kinase HCK (Homo sapiens, UniProt P08631); experiment: Inhibition of human HCK (230 to 497 residues) using […] as substrate after 40 mins by [gamma-33ATP] radiometric assay
[3] = target: Mast/stem cell growth factor receptor Kit (Homo sapiens, UniProt P10721); experiment: Inhibition of recombinant human C-Kit using poly(Glu, Tyr) 4:1 as substrate incubated for 40 mins in presence of [gamma-33ATP] by scintillation counting based radiometry assay
Mus musculus [4] = species: Mus musculus; conditions: NOD-SCID, dose 30.0 mg/kg, time 18.0 day
[5] = target: Serine/threonine-protein kinase WNK3 (Homo sapiens, UniProt Q9BYP7); experiment: Inhibition of recombinant human WNK3 (1 to 434 residues) using myelin basic protein as substrate incubated for 40 mins in presence of [gamma33P]ATP by scintillation counting based radiometry assay
Sequence of Serine/threonine-protein kinase WNK3 (Q9BYP7 whole entry, the tested form may be a part): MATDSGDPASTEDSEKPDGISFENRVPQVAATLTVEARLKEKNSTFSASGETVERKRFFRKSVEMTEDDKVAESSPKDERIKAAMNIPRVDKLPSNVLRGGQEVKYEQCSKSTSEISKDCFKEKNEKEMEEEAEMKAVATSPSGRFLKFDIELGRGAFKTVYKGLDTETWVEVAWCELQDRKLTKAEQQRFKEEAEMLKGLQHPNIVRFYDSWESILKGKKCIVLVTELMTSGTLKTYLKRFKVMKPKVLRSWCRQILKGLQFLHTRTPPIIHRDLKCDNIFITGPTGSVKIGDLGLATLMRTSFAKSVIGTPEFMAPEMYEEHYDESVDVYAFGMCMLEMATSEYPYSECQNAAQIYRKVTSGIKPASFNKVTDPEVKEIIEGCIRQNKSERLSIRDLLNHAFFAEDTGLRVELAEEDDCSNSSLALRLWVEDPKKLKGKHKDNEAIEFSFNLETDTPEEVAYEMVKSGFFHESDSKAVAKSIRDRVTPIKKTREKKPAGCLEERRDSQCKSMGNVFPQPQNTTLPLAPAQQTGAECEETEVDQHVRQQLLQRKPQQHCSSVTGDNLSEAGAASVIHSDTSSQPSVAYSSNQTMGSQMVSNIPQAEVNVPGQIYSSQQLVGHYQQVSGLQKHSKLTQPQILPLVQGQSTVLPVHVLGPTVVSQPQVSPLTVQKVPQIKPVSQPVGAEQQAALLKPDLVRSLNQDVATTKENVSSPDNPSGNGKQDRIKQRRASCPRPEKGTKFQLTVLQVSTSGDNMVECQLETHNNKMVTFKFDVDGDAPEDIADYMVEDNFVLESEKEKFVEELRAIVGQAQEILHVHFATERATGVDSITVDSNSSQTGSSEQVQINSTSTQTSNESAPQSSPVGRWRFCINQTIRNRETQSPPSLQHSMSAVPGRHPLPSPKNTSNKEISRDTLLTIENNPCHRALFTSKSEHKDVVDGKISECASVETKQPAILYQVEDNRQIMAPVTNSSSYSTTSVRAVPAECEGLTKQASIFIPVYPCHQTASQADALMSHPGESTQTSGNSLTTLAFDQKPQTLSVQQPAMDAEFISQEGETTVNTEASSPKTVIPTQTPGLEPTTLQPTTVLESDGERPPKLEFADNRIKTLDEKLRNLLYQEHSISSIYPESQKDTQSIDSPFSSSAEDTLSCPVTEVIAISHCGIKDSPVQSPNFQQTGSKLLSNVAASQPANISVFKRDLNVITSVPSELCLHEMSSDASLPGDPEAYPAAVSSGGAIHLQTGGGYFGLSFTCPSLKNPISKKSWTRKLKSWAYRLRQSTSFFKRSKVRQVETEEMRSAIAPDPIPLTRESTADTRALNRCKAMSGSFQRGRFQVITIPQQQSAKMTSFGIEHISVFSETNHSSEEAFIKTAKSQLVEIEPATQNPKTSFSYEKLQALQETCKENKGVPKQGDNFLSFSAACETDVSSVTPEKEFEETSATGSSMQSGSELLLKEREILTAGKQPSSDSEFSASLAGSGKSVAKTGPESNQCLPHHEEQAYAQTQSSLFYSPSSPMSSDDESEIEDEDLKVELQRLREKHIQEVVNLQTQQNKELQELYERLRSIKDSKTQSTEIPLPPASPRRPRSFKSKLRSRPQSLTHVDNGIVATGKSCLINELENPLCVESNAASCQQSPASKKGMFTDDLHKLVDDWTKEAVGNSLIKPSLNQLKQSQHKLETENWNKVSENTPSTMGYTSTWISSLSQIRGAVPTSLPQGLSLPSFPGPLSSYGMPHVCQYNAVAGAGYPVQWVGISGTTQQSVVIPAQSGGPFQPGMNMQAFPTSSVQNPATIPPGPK

[6] = Growth inhibition of human HTH-83 cells incubated for 3 days by MTT assay; format: functional; conditions: HTh83, 72 h, time 3 day
Angiopoietin-1 receptor = Angiopoietin-1 receptor (Homo sapiens, UniProt Q02763); experiment: Inhibition of recombinant human TIE2 (771 to end residues) using poly(Glu, Tyr) 4:1 as substrate incubated for 40 mins in presence of [gamma33P]ATP by scintillation counting based radiometry assay
Sequence of Angiopoietin-1 receptor (Q02763 whole entry, the tested form may be a part): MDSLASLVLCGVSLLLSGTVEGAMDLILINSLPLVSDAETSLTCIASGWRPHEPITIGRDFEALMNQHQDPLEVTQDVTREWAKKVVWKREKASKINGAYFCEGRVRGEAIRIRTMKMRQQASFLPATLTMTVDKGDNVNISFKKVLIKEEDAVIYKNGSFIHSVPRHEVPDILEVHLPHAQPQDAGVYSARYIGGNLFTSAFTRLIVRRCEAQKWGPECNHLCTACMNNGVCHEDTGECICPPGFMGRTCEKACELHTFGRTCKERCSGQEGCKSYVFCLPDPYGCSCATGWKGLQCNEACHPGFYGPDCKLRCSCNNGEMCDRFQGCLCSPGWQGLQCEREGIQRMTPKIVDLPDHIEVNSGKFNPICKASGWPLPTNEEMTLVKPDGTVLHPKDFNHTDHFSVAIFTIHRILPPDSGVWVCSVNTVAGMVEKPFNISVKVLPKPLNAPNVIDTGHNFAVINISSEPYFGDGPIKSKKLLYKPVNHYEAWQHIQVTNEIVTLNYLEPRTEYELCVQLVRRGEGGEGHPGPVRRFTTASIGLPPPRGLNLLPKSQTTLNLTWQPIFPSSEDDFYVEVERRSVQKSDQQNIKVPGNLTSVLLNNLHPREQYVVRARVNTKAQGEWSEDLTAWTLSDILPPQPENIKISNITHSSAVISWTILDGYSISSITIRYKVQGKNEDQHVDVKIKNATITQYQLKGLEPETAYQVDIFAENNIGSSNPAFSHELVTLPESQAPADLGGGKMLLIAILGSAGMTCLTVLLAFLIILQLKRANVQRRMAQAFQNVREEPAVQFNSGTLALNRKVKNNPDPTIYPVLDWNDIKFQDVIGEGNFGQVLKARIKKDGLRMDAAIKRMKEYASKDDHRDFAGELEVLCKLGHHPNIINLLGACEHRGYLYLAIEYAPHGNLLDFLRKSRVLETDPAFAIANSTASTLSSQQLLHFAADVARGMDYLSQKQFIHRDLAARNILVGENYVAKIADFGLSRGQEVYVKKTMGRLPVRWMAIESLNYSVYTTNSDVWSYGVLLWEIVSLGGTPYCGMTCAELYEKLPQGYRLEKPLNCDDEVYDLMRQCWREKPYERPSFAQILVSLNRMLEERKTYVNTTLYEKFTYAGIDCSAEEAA

[7] = target: Tyrosine-protein kinase ITK/TSK (Homo sapiens, UniProt Q08881); experiment: Inhibition of human ITK (352 to 617 residues) using myelin basic protein as substrate after 40 mins by [gamma-33ATP] radiometric assay
[8] = target: Vascular endothelial growth factor receptor 3 (Homo sapiens, UniProt P35916); experiment: Inhibition of recombinant human FLT4 (800 to end residues) using GGEEEEYFELVKKKK as substrate incubated for 40 mins in presence of [gamma-33ATP] by scintillation counting based radiometry assay
[9] = target: NT-3 growth factor receptor (Homo sapiens, UniProt Q16288); experiment: Inhibition of recombinant human TRKC (510 to end residues) using GEEPLYWSFPAKKK as substrate incubated for 40 mins in presence of [gamma33P]ATP by scintillation counting based radiometry assay
[10] = Tmax in Sprague-Dawley rat at 10 mg/kg, po measured upto 24 hrs by LC-MS/MS analysis; format: ADME, organism-based; conditions: in vivo
[11] = target: RAF proto-oncogene serine/threonine-protein kinase (Homo sapiens, UniProt P04049); experiment: Inhibition of recombinant human C-Raf (306 to end residues) poly(Glu, Tyr) 4:1 as substrate incubated 40 mins in presence of [gamma-33ATP] by scintillation counting based radiometry assay
Sequence of RAF proto-oncogene serine/threonine-protein kinase (P04049 whole entry): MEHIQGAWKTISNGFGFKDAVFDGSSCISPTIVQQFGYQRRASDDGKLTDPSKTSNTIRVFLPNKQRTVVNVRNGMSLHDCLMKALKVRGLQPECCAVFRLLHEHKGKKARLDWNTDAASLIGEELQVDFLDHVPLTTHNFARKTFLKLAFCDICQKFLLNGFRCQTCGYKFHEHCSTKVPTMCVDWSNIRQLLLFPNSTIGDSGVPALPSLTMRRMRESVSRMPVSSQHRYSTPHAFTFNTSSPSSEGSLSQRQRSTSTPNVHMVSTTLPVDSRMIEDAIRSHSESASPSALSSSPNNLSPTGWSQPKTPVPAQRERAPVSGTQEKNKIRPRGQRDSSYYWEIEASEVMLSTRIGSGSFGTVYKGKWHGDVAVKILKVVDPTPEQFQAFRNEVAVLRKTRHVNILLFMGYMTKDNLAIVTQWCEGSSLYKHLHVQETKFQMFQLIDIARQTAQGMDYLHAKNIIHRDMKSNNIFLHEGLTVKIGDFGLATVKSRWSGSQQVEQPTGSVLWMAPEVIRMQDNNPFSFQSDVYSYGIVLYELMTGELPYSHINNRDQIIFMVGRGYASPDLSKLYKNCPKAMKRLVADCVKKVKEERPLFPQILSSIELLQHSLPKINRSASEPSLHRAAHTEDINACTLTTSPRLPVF

HepG2 = experiment: Growth inhibition of human HepG2 cells incubated for 3 days by MTT assay; format: functional; conditions: HepG2, 72 h, time 3 day
[12] = target: Platelet-derived growth factor receptor beta (Homo sapiens, UniProt P09619); experiment: Inhibition of human PDGFRbeta (557 to end residues) using poly(Glu, Tyr) 4:1 as substrate measured after 40 mins in presence of [gamma33P]ATP by scintillation counting based radiometry assay
Ephrin type-A receptor 7 = Ephrin type-A receptor 7 (Homo sapiens, UniProt Q15375); experiment: Inhibition of recombinant human EphA7 (613 to 909 residues) using KTFCGTPEYLAPEVRREPRILSEEEQEMFRDFDYIADWC as substrate incubated for 40 mins in presence of [gamma-33ATP] by scintillation counting based radiometry assay
[13] = target: BDNF/NT-3 growth factors receptor (Homo sapiens, UniProt Q16620); experiment: Inhibition of recombinant human TRKB (455 to end residues) using poly(Glu, Tyr) 4:1 as substrate incubated for 40 mins in presence of [gamma33P]ATP by scintillation counting based radiometry assay
[14] = target: Macrophage-stimulating protein receptor (Homo sapiens, UniProt Q04912); experiment: Inhibition of recombinant human Ron (983 to end residues) using GGMEDIYFEFMGGKKK as substrate incubated for 40 mins in presence of [gamma33P]ATP by scintillation counting based radiometry assay
Mus musculus [15] = species: Mus musculus; conditions: NOD-SCID, dose 30.0 mg/kg, time 18.0 day; remark: listed apart in the source
[16] = target: Mitogen-activated protein kinase kinase kinase 7 (Homo sapiens, UniProt O43318); experiment: Inhibition of recombinant human TAK1 (1 to 303 residues) using casein as substrate incubated for 40 mins in presence of [gamma33P]ATP by scintillation counting based radiometry assay
Sequence of Mitogen-activated protein kinase kinase kinase 7 (O43318 whole entry, the tested form may be a part): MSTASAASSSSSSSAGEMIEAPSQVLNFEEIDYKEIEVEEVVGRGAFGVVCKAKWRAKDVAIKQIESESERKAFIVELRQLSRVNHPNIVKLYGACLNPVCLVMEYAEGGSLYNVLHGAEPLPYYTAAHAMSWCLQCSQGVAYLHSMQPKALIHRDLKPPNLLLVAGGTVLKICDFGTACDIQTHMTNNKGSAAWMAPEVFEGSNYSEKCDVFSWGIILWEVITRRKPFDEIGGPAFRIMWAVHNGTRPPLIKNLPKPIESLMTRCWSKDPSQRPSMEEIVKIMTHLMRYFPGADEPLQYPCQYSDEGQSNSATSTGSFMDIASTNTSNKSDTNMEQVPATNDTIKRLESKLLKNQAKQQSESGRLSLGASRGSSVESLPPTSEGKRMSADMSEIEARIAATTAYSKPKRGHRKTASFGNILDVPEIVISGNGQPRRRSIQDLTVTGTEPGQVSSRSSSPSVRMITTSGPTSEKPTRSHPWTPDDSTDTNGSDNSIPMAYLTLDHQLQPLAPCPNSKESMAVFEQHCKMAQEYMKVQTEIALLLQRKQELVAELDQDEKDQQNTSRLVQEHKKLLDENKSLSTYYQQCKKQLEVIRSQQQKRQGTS

[17] = target: Mitogen-activated protein kinase 13 (Homo sapiens, UniProt O15264); experiment: Inhibition of recombinant human full length SAPK4 using myelin basic protein as substrate incubated for 40 mins in presence of [gamma33P]ATP by scintillation counting based radiometry assay
Sequence of Mitogen-activated protein kinase 13 (O15264 whole entry): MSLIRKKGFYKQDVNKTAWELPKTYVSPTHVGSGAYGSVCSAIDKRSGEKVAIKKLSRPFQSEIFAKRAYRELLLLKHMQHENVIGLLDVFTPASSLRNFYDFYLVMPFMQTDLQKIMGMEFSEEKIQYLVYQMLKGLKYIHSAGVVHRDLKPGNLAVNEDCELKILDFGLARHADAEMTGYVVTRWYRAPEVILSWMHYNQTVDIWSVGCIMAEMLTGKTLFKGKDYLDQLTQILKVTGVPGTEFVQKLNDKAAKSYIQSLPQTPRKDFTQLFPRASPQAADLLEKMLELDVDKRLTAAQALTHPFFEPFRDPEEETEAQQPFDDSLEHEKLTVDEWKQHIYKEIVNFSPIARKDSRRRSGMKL

[18] = Cmax in Sprague-Dawley rat at 10 mg/kg, po measured upto 24 hrs by LC-MS/MS analysis; format: ADME, organism-based; set-up: route oral, dose 10 mg/kg, time <=24; conditions: in vivo
CDK4/Cyclin D3 = CDK4/Cyclin D3 (Homo sapiens, UniProt P11802); experiment: Inhibition of recombinant full length human CDK4/CyclinD3 using Rb fragment as substrate incubated for 40 mins in presence of [gamma-33ATP] by scintillation counting based radiometry assay; format: protein-complex assay
[19] = Volume of distribution at steady state in Sprague-Dawley rat at 10 mg/kg, po measured upto 24 hrs by LC-MS/MS analysis; format: ADME, organism-based; conditions: in vivo
[20] = Growth inhibition of human H4 cells incubated for 3 days by MTT assay; format: functional; conditions: H4, 72 h, time 3 day
Mus musculus [21] = species: Mus musculus; conditions: NOD-SCID, dose 30.0 mg/kg, time 18.0 day; remark: listed apart in the source
Ramos = experiment: Growth inhibition of human Ramos cells incubated for 3 days by MTT assay; format: functional; conditions: 72 h, time 3 day
[22] = target: Serine/threonine-protein kinase Nek9 (Homo sapiens, UniProt Q8TD19); experiment: Inhibition of recombinant human NEK9 (1 to 324 residues) using myelin basic protein as substrate measured after 40 mins in presence of [gamma33P]ATP by scintillation counting based radiometry assay
[23] = Half life in Sprague-Dawley rat at 10 mg/kg, po measured upto 24 hrs by LC-MS/MS analysis; format: ADME, organism-based; conditions: in vivo
BaF3 = experiment: Growth inhibition of mouse BaF3 cells harboring RET M918T mutant incubated for 3 days by MTT assay; format: functional; conditions: BaF3, 72 h, time 3 day
[24] = target: Tyrosine-protein kinase FRK (Homo sapiens, UniProt P42685); experiment: Inhibition of recombinant human PTK5 (218 to end residues) using GGEEEEYFELVKKKK as substrate incubated for 40 mins in presence of [gamma33P]ATP by scintillation counting based radiometry assay
Sequence of Tyrosine-protein kinase FRK (P42685 whole entry): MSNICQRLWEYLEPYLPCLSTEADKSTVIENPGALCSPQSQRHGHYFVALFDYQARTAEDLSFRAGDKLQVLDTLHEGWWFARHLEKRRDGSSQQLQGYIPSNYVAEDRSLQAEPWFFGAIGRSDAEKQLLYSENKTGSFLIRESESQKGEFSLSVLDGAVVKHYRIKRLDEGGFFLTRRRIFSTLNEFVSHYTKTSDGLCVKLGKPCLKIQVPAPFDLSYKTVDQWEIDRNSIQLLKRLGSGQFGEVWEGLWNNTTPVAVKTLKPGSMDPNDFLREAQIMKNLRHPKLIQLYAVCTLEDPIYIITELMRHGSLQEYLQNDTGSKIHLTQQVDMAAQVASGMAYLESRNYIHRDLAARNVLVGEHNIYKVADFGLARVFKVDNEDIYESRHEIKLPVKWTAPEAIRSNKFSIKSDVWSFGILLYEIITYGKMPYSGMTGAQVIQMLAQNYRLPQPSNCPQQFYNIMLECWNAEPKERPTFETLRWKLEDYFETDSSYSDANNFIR

[25] = target: Mitogen-activated protein kinase 11 (Homo sapiens, UniProt Q15759); experiment: Inhibition of recombinant human full length SAPK2b using myelin basic protein as substrate incubated for 40 mins in presence of [gamma33P]ATP by scintillation counting based radiometry assay

`CC(C)(C)c1cc(NC(=O)Nc2ccc(Nc3ncnc4c3OCCCN4)cc2)no1` showed a GI50 (MGC-803) of 4.31 µM, an IC50 [1] of 0.892 µM and an IC50 [2] of 0.087 µM. For the same compound, the IC50 [3] was 0.218 µM, the inhibition (Mus musculus [4]) was “Active” and the IC50 [5] was 0.494 µM. The GI50 [6] was > 10 µM, the IC50 (Angiopoietin-1 receptor) was 0.408 µM and the IC50 [7] was 0.338 µM. The IC50 [8] was 0.006 µM, the IC50 [9] was 0.02 µM and the Tmax [10] was 15 min. The IC50 [11] was 0.232 µM, the GI50 (HepG2) was > 10 µM and the IC50 [12] was 0.686 µM. For the same compound, the IC50 (Ephrin type-A receptor 7) was 0.199 µM, the IC50 [13] was 0.068 µM and the IC50 [14] was 1.26 µM. For the same compound, the inhibition (Mus musculus [15]) was “Active”, the IC50 [16] was 0.484 µM and the IC50 [17] was 0.214 µM. It also gave a Cmax [18] of 263 µg/mL, an IC50 (CDK4/Cyclin D3) of 1.11 µM and a Vdss [19] of 0.05 L/kg. For the same compound, the GI50 [20] was > 10 µM, the inhibition (Mus musculus [21]) was “Active” and the GI50 (Ramos) was > 10 µM. The IC50 [22] was 1.8 µM, the half-life [23] was 92.3 min and the GI50 (BaF3) was 0.87 µM. For the same compound, the IC50 [24] was 0.051 µM and the IC50 [25] was 0.05 µM.
